Values of other authors, collected in patent publication US6369065B1, “CD40 signal blocking agent” (UCB S.A., priority 2000, dated 2002).

Test system: aorta lesions
Details: rabbit models of arteriosclerosis

CCCCCN(CCO)c1cc(N2CCCCC2)nc2ncnn12 [AR12463]
progress of aorta lesions: suppress the progress of aorta lesions
